Reference: patent publication US12024552B2 (priority 2012, dated 2024)
Marks after values point to notes of the source that are not given here.

Experiments:
[1] = test system: influenza H1N1 and Streptococcus pneumoniae; parameters: species or system mice; settings: mouse, in vivo
[2] = test system: Influenza A/Vietnam/1203/2004 (H5N1) virus; parameters: species or system BALB/c mice; settings: mouse, in vivo

| SMILES | rescue from death [1] | Hazard Ratio (95% CI) [2] | Live/Total [2] | Mean Day of Death ± SD [2] | Median Survival [2] | survival, H5N1 [2] [%] |
| --- | --- | --- | --- | --- | --- | --- |
| NC(=O)c1ncn([C@@H]2O[C@H](CO)[C@@H](O)[C@H]2O)n1 [Ribavirin, ribavirin] | failed to rescue animals from death | – | – | – | – | – |
| CCOC(=O)C1=C[C@@H](OC(CC)CC)[C@H](NC(C)=O)[C@@H](N)C1 [Oseltamivir, oseltamivir] | – | 4.8 (1.6-14.3) | 4/7* | 11.3 ± 0.6 | Undefined | 60 |
